Values after ≈ are worked out from the molar mass of the structure shown.
Assays:
[1] = system: various kanamycin-resistant bacteria and Pseudomonas aeruginosa (for example, Pseudomonas aeruginosa GN 315) capable of producing the 6'-acetyltransferase; details: 6'-acetyltransferase producers; cited from earlier work
[2] = system: drug-resistant bacteria capable of producing the 3'-phosphotransferase; details: 3'-phosphotransferase producers; cited from earlier work
[3] = system: Escherichia coli K-12 ML 1410; test: Minimum inhibitory concentration, agar dilution-streak method; type: cell-based; details: K12ML1410, E. coli K-12 ML 1410, nutrient agar, 37° C, 18 hours
Method: (§1) The minimum inhibitory concentrations (mcg/ml) of the new compounds 1-N-((S)-γ-amino-α-hydroxybutyryl)-3'-deoxykanamycin A (abbreviated as S-AHB-DKA); 1-N-((SR)-β-amino-α-hydroxypropionyl)-3'-deoxykanamycin A (abbreviated as SR-AHP-DKA); 1-N-((S)-δ-amino-α-hydroxyvaleryl)-3'-deoxykanamycin A (abbreviated as S-AHV-DKA); and 1-N-((S)-γ-amino-α-hydroxybutyryl)-6'-N-methyl-3'-deoxykanamycin A (abbreviated as S-AHB-MDKA) against various organisms were determined according to agar dilution-streak method (nutrient agar) at 37° C, the estimation being made after 18 hours incubation. For the comparison purpose, the minimum inhibitory concentrations (mcg/ml) of the parent antibiotic 3'-deoxykanamycin A, as well as 1-N-((S)-γ-amino-α-hydroxybutyryl)kanamycin A (abbreviated as AHB-KMA) which is known from U.S. Pat. No. 3,781,268 were also determined in the same manner as stated above.

[4] = system: Staphylococcus aureus FDA 209P; test: as above; type: cell-based; details: FDA209P, S. aureus FDA 209P, nutrient agar, 37° C, 18 hours
Method: as §1

[5] = system: Escherichia coli K-12 W677; test: as above; type: cell-based; details: K12W677, E. coli K-12 W677, nutrient agar, 37° C, 18 hours
Method: as §1

Escherichia coli K-12 = test: as above; type: cell-based; details: K12, E. coli K-12, nutrient agar, 37° C, 18 hours
Method: as §1

[6] = system: Escherichia coli K-12 LA 290 R55; test: as above; type: cell-based; details: K12LA290R55, 18 h, read-out: Minimum Inhibitory Concentration
Method: as §1

[7] = system: Escherichia coli K-12 JR66/W677; test: as above; type: cell-based; details: K12JR66/W677, 18 h, read-out: Minimum Inhibitory Concentration
Method: as §1

[8] = system: Pseudomonas aeruginosa GN315; test: as above; type: cell-based; details: P. aeruginosa GN315, nutrient agar, 37° C, 18 hours
Method: as §1

[9] = system: Pseudomonas aeruginosa A3; test: as above; type: cell-based; details: P. aeruginosa A3, nutrient agar, 37° C, 18 hours
Method: as §1

[10] = system: Escherichia coli K-12 ML 1629; test: as above; type: cell-based; details: K12ML1629, E. coli K-12 ML 1629, nutrient agar, 37° C, 18 hours
Method: as §1

[11] = system: Pseudomonas aeruginosa No. 12; test: as above; type: cell-based; details: P. aeruginosa No. 12, nutrient agar, 37° C, 18 hours
Method: as §1

[12] = system: Escherichia coli K-12 ML 1630; test: as above; type: cell-based; details: K12ML1630, E. coli K-12 ML 1630, nutrient agar, 37° C, 18 hours
Method: as §1

[13] = system: kanamycin-resistant bacteria and ribostamycin-resistant bacteria; details: cited from earlier work

Question: Which “activity against resistant bacteria” value [1] does the source give for `CNC[C@@H]1CC[C@@H](N)[C@@H](O[C@H]2[C@H](O)[C@@H](O[C@H]3O[C@H](CO)[C@@H](O)[C@H](N)[C@H]3O)[C@H](N)C[C@@H]2N)O1` [6'-N-methyl-3',4'-dideoxykanamycin B] here?
Answer: active against various kanamycin-resistant bacteria and Pseudomonas aeruginosa

Question: With `NC[C@@H]1CC[C@@H](N)[C@@H](O[C@H]2[C@H](O[C@@H]3O[C@H](CO)[C@@H](O)[C@H]3O)[C@@H](O)[C@H](N)C[C@@H]2N)O1` [3',4'-dideoxyribostamycin] as the compound, how does the “effectiveness against drug-resistant bacteria” value [2] read?
Answer: practically effective against the drug-resistant bacteria

Question: For `NC[C@@H]1CC[C@@H](N)[C@@H](O[C@H]2[C@H](O)[C@@H](O[C@H]3O[C@H](CO)[C@@H](O)[C@H](N)[C@H]3O)[C@H](N)C[C@@H]2N)O1` [3',4'-dideoxykanamycin B], which “effectiveness against drug-resistant bacteria” value [2] is on record?
Answer: practically effective against the drug-resistant bacteria

Question: Which MIC [3] does the source give for `NCC[C@H](O)C(=O)N[C@@H]1C[C@H](N)[C@@H](O[C@H]2O[C@H](CN)[C@@H](O)C[C@H]2O)[C@H](O)[C@H]1O[C@H]1O[C@H](CO)[C@@H](O)[C@H](N)[C@H]1O` [S-AHB-DKA, 1-N-((S)-γ-amino-α-hydroxybutyryl)-3'-deoxykanamycin A] here?
Answer: 0.39 µg/mL (≈ 0.685 µM)

Question: And the MIC [4]?
Answer: 0.39 µg/mL (≈ 0.685 µM)

Question: And the MIC [5]?
Answer: < 0.2 µg/mL

Question: And the MIC (Escherichia coli K-12)?
Answer: 0.39 µg/mL (≈ 0.685 µM)

Question: And the MIC [6]?
Answer: 0.78 µg/mL (≈ 1.37 µM)

Question: What about the MIC [7] of the same compound?
Answer: 0.78 µg/mL (≈ 1.37 µM)

Question: And the MIC [8]?
Answer: 100 µg/mL (≈ 176 µM)

Question: And the MIC [9]?
Answer: 3.12 µg/mL (≈ 5.48 µM)

Question: What about the MIC [10] of the same compound?
Answer: 0.39 µg/mL (≈ 0.685 µM)

Question: What about the MIC [11] of the same compound?
Answer: 3.12 µg/mL (≈ 5.48 µM)

Question: And the MIC [12]?
Answer: 0.78 µg/mL (≈ 1.37 µM)

Question: Which MIC [3] does the source give for `CNC[C@H]1O[C@H](O[C@H]2[C@H](O)[C@@H](O[C@H]3O[C@H](CO)[C@@H](O)[C@H](N)[C@H]3O)[C@H](NC(=O)[C@@H](O)CCN)C[C@@H]2N)[C@H](O)C[C@@H]1O` [S-AHB-MDKA, 1-N-((S)-γ-amino-α-hydroxybutyryl)-6'-N-methyl-3'-deoxykanamycin A] here?
Answer: 0.78 µg/mL (≈ 1.34 µM)

Question: And the MIC [4]?
Answer: 0.78 µg/mL (≈ 1.34 µM)

Question: And the MIC [5]?
Answer: 3.12 µg/mL (≈ 5.35 µM)

Question: What about the MIC (Escherichia coli K-12) of the same compound?
Answer: 0.39 µg/mL (≈ 0.668 µM)

Question: And the MIC [6]?
Answer: 1.56 µg/mL (≈ 2.67 µM)

Question: And the MIC [7]?
Answer: 1.56 µg/mL (≈ 2.67 µM)

Question: And the MIC [8]?
Answer: 6.25 µg/mL (≈ 10.7 µM)

Question: What about the MIC [9] of the same compound?
Answer: 3.12 µg/mL (≈ 5.35 µM)

Question: And the MIC [10]?
Answer: 1.56 µg/mL (≈ 2.67 µM)

Question: And the MIC [11]?
Answer: 3.12 µg/mL (≈ 5.35 µM)

Question: What about the MIC [12] of the same compound?
Answer: 0.78 µg/mL (≈ 1.34 µM)

Question: With `NCC[C@H](O)C(=O)N[C@@H]1C[C@H](N)[C@@H](O[C@H]2O[C@H](CN)[C@@H](O)[C@H](O)[C@H]2O)[C@H](O)[C@H]1O[C@H]1O[C@H](CO)[C@@H](O)[C@H](N)[C@H]1O` [AHB-KMA, 1-N-((S)-γ-amino-α-hydroxybutyryl)kanamycin A, reference compound] as the compound, how does the MIC [3] read?
Answer: 0.78 µg/mL (≈ 1.33 µM)

Question: And the MIC [4]?
Answer: 0.78 µg/mL (≈ 1.33 µM)

Question: What about the MIC [5] of the same compound?
Answer: 0.78 µg/mL (≈ 1.33 µM)

Question: What about the MIC (Escherichia coli K-12) of the same compound?
Answer: 0.78 µg/mL (≈ 1.33 µM)

Question: And the MIC [6]?
Answer: 0.78 µg/mL (≈ 1.33 µM)

Question: And the MIC [7]?
Answer: 3.12 µg/mL (≈ 5.33 µM)

Question: And the MIC [8]?
Answer: 100 µg/mL (≈ 171 µM)

Question: And the MIC [9]?
Answer: 3.12 µg/mL (≈ 5.33 µM)

Question: What about the MIC [10] of the same compound?
Answer: 0.78 µg/mL (≈ 1.33 µM)

Question: And the MIC [11]?
Answer: 6.25 µg/mL (≈ 10.7 µM)

Question: What about the MIC [12] of the same compound?
Answer: 1.56 µg/mL (≈ 2.66 µM)

Question: For `NCC[C@H](O)C(=O)N[C@@H]1C[C@H](N)[C@@H](O[C@H]2O[C@H](CN)[C@@H](O)[C@H](O)[C@H]2N)[C@H](O[C@@H]2O[C@H](CO)[C@@H](O)[C@H]2O)[C@H]1O` [butirosin B, 1-N-((S)-α-hydroxy-γ-amino-n-butyryl)-5-O-β-D-ribofuranosylneamine], which “activity against resistant bacteria” value [13] is on record?
Answer: active against some kanamycin-resistant bacteria and some ribostamycin-resistant bacteria

Question: With `CNC[C@H]1O[C@H](O[C@H]2[C@H](O)[C@@H](O[C@H]3O[C@H](CO)[C@@H](O)[C@H](N)[C@H]3O)[C@H](N)C[C@@H]2N)[C@H](N)C[C@@H]1O` [6'-N-methyl-3'-deoxykanamycin B] as the compound, how does the “activity against resistant bacteria” value [1] read?
Answer: active against various kanamycin-resistant bacteria and Pseudomonas aeruginosa

Question: For `NCC(O)C(=O)N[C@@H]1C[C@H](N)[C@@H](O[C@H]2O[C@H](CN)[C@@H](O)C[C@H]2O)[C@H](O)[C@H]1O[C@H]1O[C@H](CO)[C@@H](O)[C@H](N)[C@H]1O` (stereo partly drawn) [SR-AHP-DKA, 1-N-((SR)-β-amino-α-hydroxypropionyl)-3'-deoxykanamycin A], which MIC [3] is on record?
Answer: 0.78 µg/mL (≈ 1.4 µM)

Question: What about the MIC [4] of the same compound?
Answer: 0.78 µg/mL (≈ 1.4 µM)

Question: And the MIC [5]?
Answer: 0.78 µg/mL (≈ 1.4 µM)

Question: And the MIC (Escherichia coli K-12)?
Answer: 0.39 µg/mL (≈ 0.702 µM)

Question: What about the MIC [6] of the same compound?
Answer: 1.56 µg/mL (≈ 2.81 µM)

Question: What about the MIC [7] of the same compound?
Answer: 1.56 µg/mL (≈ 2.81 µM)

Question: And the MIC [8]?
Answer: > 100 µg/mL

Question: And the MIC [9]?
Answer: 3.12 µg/mL (≈ 5.62 µM)

Question: What about the MIC [10] of the same compound?
Answer: 0.78 µg/mL (≈ 1.4 µM)

Question: And the MIC [11]?
Answer: 6.25 µg/mL (≈ 11.2 µM)

Question: What about the MIC [12] of the same compound?
Answer: 0.78 µg/mL (≈ 1.4 µM)

Question: What does the source list for `NC[C@H]1O[C@H](O[C@H]2[C@H](O)[C@@H](O[C@H]3O[C@H](CO)[C@@H](O)[C@H](N)[C@H]3O)[C@H](N)C[C@@H]2N)[C@H](O)C[C@@H]1O` [DKA, 3'-deoxykanamycin A]?
Answer: MIC [3]: 3.12 µg/mL (≈ 6.66 µM); MIC [4]: 1.56 µg/mL (≈ 3.33 µM); MIC [5]: 3.12 µg/mL (≈ 6.66 µM); MIC (Escherichia coli K-12): 3.12 µg/mL (≈ 6.66 µM); MIC [6]: 3.12 µg/mL (≈ 6.66 µM); MIC [7]: > 100 µg/mL; MIC [8]: > 100 µg/mL; MIC [9]: 3.12 µg/mL (≈ 6.66 µM); MIC [10]: 3.12 µg/mL (≈ 6.66 µM); MIC [11]: 12.5 µg/mL (≈ 26.7 µM); MIC [12]: 3.12 µg/mL (≈ 6.66 µM); effectiveness against drug-resistant bacteria [2]: practically effective against the drug-resistant bacteria

Question: With `NCCC[C@H](O)C(=O)N[C@@H]1C[C@H](N)[C@@H](O[C@H]2O[C@H](CN)[C@@H](O)C[C@H]2O)[C@H](O)[C@H]1O[C@H]1O[C@H](CO)[C@@H](O)[C@H](N)[C@H]1O` [S-AHV-DKA, 1-N-((S)-δ-amino-α-hydroxyvaleryl)-3'-deoxykanamycin A] as the compound, how does the MIC [3] read?
Answer: 3.12 µg/mL (≈ 5.35 µM)

Question: What about the MIC [4] of the same compound?
Answer: 0.78 µg/mL (≈ 1.34 µM)

Question: What about the MIC [5] of the same compound?
Answer: 3.12 µg/mL (≈ 5.35 µM)

Question: What about the MIC (Escherichia coli K-12) of the same compound?
Answer: 0.78 µg/mL (≈ 1.34 µM)

Question: What about the MIC [6] of the same compound?
Answer: 3.12 µg/mL (≈ 5.35 µM)

Question: And the MIC [7]?
Answer: 3.12 µg/mL (≈ 5.35 µM)

Question: What about the MIC [8] of the same compound?
Answer: > 100 µg/mL

Question: And the MIC [9]?
Answer: 3.12 µg/mL (≈ 5.35 µM)

Question: And the MIC [10]?
Answer: 1.56 µg/mL (≈ 2.67 µM)

Question: And the MIC [11]?
Answer: 6.25 µg/mL (≈ 10.7 µM)

Question: What about the MIC [12] of the same compound?
Answer: 1.56 µg/mL (≈ 2.67 µM)

Source: patent US4104372A, “1-N-(α-hydroxy-ω-aminoalkanoyl) derivatives of 3'-deoxykanamycin A and the production thereof” (Zaidan Hojin Biseibutsu Kagaku Kenkyu Kai, priority 1975, dated 1978)
